This experiment concerns the target T1, Saposin B (SapB) (Homo sapiens, UniProt P07602).
T1 sequence (P07602 195-273): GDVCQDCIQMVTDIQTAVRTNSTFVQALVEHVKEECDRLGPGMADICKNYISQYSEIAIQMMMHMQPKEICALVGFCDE
Briefly: tyrosine fluorescence quenching titration. Type of experiment: binding.

With `CC1=C(/C=C/C(C)=C/C=C/C(C)=C/c2cc(/C=C/C=C(C)/C=C/C3=C(C)CCCC3(C)C)cc[n+]2CCO)C(C)(C)CCC1` [A2E, 2-[(1E,3E,5E,7E)-2,5-dimethyl-8-(2,6,6-trimethyl-cyclohex-1-en-1-yl)octa-1,3,5,7-tetraen-1-yl]-1-(2-hydroxyethyl)-4-[(1E,3E,5E)-4-methyl-6-(2,6,6-trimethylcyclohex-1-en-1-yl)hexa-1,3,5-trien-1-yl]pyridinium], the Kd is 25 µM.

These data come from PMC5646234 (ChemPhotoChem, 2017).
